Entries after “also recorded” stand apart in the source; their conditions may differ.
B1: RANKL: trimerized recombinant RANKL protein (rRANKL), receptor activator of NF-KB ligand (protein, UniProt O14788 69-317, looked up)
extracellular domain: YFRAQMDPNRISEDGTHCIYRILRLHENADFQDTTLESQDTKLIPDSCRRIKQAFQGAVQKELQHIVGSQHIRAEKAMVDGSWLDLAKRSKLEAQPFAHLTINATDIPSGSHKVSLSSWYHDRGWAKISNMTFSNGKLIVNQDGFYYLYANICFRHHETSGDLATEYLQLMVYVTKTSIKIPSSHTLMKGGSTKYWSGNSEFHFYSINVGGFFKLRSGEEISIEVSNPSLLDPDQDATYFGAFKVRDID
modifications: extracellular domain trimerized

Key:
Type in all cases: cell-based, human
[1] = test system: ARCaPE, ARCaPM and ARCaPE-RANKL cells; test: In vitro migration and invasion assays (transwell), ARCaP model
Method: (§1) Migration and invasion of cancer cells were examined in 24-well plates using either uncoated or collagen I- and growth factor reduced Matrigel (BD Biosciences, Bedford, Mass.)-coated transwells (8 μm pore size), respectively, as previously described. Cells were serum-starved in RPMI 1640 or T-medium (Invitrogen, Carlsbad, Calif.) overnight and dissociated in 10 mM EDTA/HEPES. The lifted cells were washed and counted, and 5×10^4 cells were seeded in 100 μl of serum-free RPMI 1640 or T-medium in the upper chamber of the transwells in the presence or absence of 1 μg/ml OPG and 400 μl of RPMI 1640 or T-medium supplemented with 5% FBS was placed in the lower chamber of the transwells. After 24 h (migration) and 48 h (invasion) of culturing at 37° C., the migrated and invaded cells were fixed with 10% formaldehyde, stained with 0.5% crystal violet, and the cells at the upper side of the membrane of the chamber were removed and quantified.

cMet in LNCaP cells = test: cMet expression and phosphorylation (Western blot), LNCaP
[2] = test system: LNCaP and LNCaP-RANKL cells; test: In vitro migration and invasion assays (transwell), LNCaP model
Method: as §1

LNCaP cells = test: EMT marker / RANKL expression and signaling by RT-PCR and Western blot, LNCaP model
Method: Total RNA from cells was isolated using RNeasy Mini Kit (Qiagen, Valencia, Calif.) according to manufacturer's instructions. Complementary DNA (cDNA) was generated from 3 μg of total RNA using SuperScript® III First-Strand Synthesis System (Invitrogen, Carlsbad Calif.), and 1 μl of cDNA was subjected to PCR analyses using the following primers: RANKL F: 5′-TGGATCACAGCACATCAGAGCAG-3′ (SEQ ID NO:3); RANKL R: 5′-TGGGGCTCAATCTATATCTCGAAC-3′ (SEQ ID NO:4); RANK F: 5′-GGGAAAGCACTCACAGCTAATTTG-3′ (SEQ ID NO:5); RANK R: 5′-GCACTGGCTTAAACTGTCATTCTCC-3′ (SEQ ID NO:6); OPG F: 5′-GCT AAC CTC ACC TTC GAG-3′ (SEQ ID NO:7); OPG R: 5′-TGA TTG GAC CTG GTT ACC-3′ (SEQ ID NO:8); E-cadherin F: 5′-GCCAAGCAGCAGTACATTCTACACG-3′ (SEQ ID NO:9); E-cadherin R: 5′-GCTGTTCTTCACGTGCTCAAAATCC-3′ (SEQ ID NO:10); N-cadherin F: 5′-GATGTTGAGGTACAGAATCGT-3′ (SEQ ID NO:11); N-cadherin R: 5′-GGT CGG TCT GGA TGG CGA-3′ (SEQ ID NO:12); Snail F: 5′-CAGACCCACTCAGATGTCAA-3′ (SEQ ID NO:13); Snail R: 5′-CATAGTTAGTCACACCTCGT-3′ (SEQ ID NO:14); Vimentin F: 5′-GGA CTC GGT GGA CTT CTC-3′ (SEQ ID NO:15); Vimentin R: 5′-CGC ATC TCC TCC TCG TAG-3′ (SEQ ID NO:16). The PCR reaction cycles involved an initial denaturation at 94° C. for 10 min, followed by 36 cycles of 94° C., 1 min; 55° C., 30 sec for RANKL and RANK and 48° C., 1 min for OPG; 72° C., 1 min and a final extension at 72° C. for 10 min. For E-cadherin and N-cadherin gene amplification, the PCR reactions ran for a total of 32 cycles and the annealing temperature was 55° C. and 47° C., respectively for 30 sec. For Snail, Vimentin, and GAPDH amplification, the PCR reactions ran for a total of 28 cycles with annealing temperatures at 48° C. for 30 sec. The amplified PCR products were detected and analyzed on 1% agarose gel.
ARCaPE and LNCaP cells were cultured in 6-well plate and at 70% confluency, the cells were serum-starved overnight and then treated with 200 ng/ml of trimerized RANKL in serum-free and phenol-red free RPMI-1640 medium for three days before harvesting the cells. ARCaPE-RANKL and LNCaP-RANKL cells were cultured in 6-well plate and treated with 20 μM of LY294002, a PI3K inhibitor, 20 μM of SB203580, an inhibitor of MAP kinase reactivating kinase, or 2 μM of PS341 (bortezomib), a proteasome inhibitor, at 90% confluency for four hours. Cells were lysed in RIPA buffer containing 1× protease inhibitor cocktail (Thermo Fisher Scientific, Waltham, Mass.) and centrifuged, and the supernatants were collected and quantified using Bradford Protein Assay (Thermo Fisher Scientific, Waltham, Mass.). Cell lysates (20-30 μg) were resolved on a 4-12% Bis-Tris gradient SDS-PAGE (Invitrogen, Carlsbad, Calif.) under reducing conditions, followed by transblotting onto nitrocellulose membrane (BioRad, Hercules, Calif.). The membranes were blocked in 5% non-fat milk in PBST for one hour at room temperature (RT) and incubated with diluted primary antibodies in blocking buffer at 4° C. overnight. The primary antibodies used were RANKL, E-cadherin, vimentin, and OPG (Santa Cruz Biotechnology, Inc., Santa Cruz, Calif.), RANK (Amgen, Thousand Oaks, Calif.), N-cadherin (BD Transduction Laboratories, San Jose, Calif.), phosphor-Akt (Ser 473), Akt, phosphor-p38 (Thr180/Tyr182), p38, phosphor-ERK1/2 (Thr202/Tyr204), ERK, phosphor-SAPK/JNK (Thr183/Tyr185), JNK, phosphor-NF-κB p65 (Ser536), and NF-κB p65 (Cell Signaling Technology, Danvers, Mass.). The membranes were washed with PBST for three times before incubating with peroxidase-conjugated anti-mouse or anti-rabbit secondary antibodies at RT for one hour. After three times washing, the membranes were visualized using ECL Plus reagent (GE Healthcare, Piscataway, N.J.).

Molecule	increased migration and invasion of ARCaPE-RANKL cells ([1]; OPG treatment)	migration and invasion of ARCaPM cells ([1]; OPG treatment, 1 μg/ml)	RANKL-induced increase of migration and invasion of ARCaPE cells ([1]; presence of OPG)	RANKL- or HGF-induced cMet expression and phosphorylation in LNCaP cells (cMet in LNCaP cells; OPG (vs RANKL) or anti-HGF antibody (vs HGF) treatment)	increased migration and invasion of LNCaP-RANKL cells ([2]; OPG treatment)	RANKL-induced increase of migration and invasion of LNCaP cells ([2]; presence of OPG)	RANKL-induced RANKL expression in LNCaP cells (LNCaP cells; addition of OPG)	RANKL-induced biochemical EMT changes in LNCaP cells (LNCaP cells; addition of OPG)	migration and invasion of ARCaPE cells ([1]; recombinant RANKL treatment)	cMet expression and phosphorylated level of cMet in LNCaP cells (cMet in LNCaP cells; exogeneous RANKL or HGF treatment)	migration and invasion of LNCaP cells ([2]; recombinant RANKL treatment)	RANKL expression at mRNA and protein levels in LNCaP cells (LNCaP cells; RANKL treatment)	nuclear levels of cMyc and Max in LNCaP cells (LNCaP cells; RANKL-treated versus LNCaP cells)	induction of EMT (EMT-specific markers) in LNCaP cells (LNCaP cells; exogenously added RANKL, 200 ng/ml)	phosphorylation of PI3K/Akt, P38 and NFκB proteins in parental LN cells (LNCaP cells; treated with RANKL protein)
osteoprotegerin [OPG]	suppressed	antagonized; also recorded: decreased	abrogated	abrogated	antagonized; also recorded: suppressed	abrogated	attenuated	abolished							
B1									increased	significantly increased	increased	induced; also recorded: up-regulated	higher	confirmed; also recorded: decreased epithelial marker E-cadherin and increased mesenchymal marker vimentin, N-cadherin, and Snail	elevated
